System: Human skin fibroblasts
Test: Measurement of contraction force generated by cells (fibroblast-embedded collagen gel culture system)
Format: cell-based
Conditions: for enhancement in the contraction force generated by fibroblasts (in words): 3 μM; for Mean value of contraction force generated by cells: Test Example 1, human skin fibroblasts in collagen gel, final concentration 3 μM

Structure (SMILES)	enhancement in the contraction force generated by fibroblasts (in words)	Mean value of contraction force generated by cells
C/C=C(\C)C(=O)O[C@H]1[C@H](OC(C)=O)[C@]2(CO)[C@H](O)C[C@]3(C)C(=CC[C@@H]4[C@@]5(C)CC[C@H](O[C@@H]6O[C@H](C(=O)O)[C@@H](O[C@@H]7O[C@H](CO)[C@@H](O)[C@H](O)[C@H]7O)[C@H](O)[C@H]6O[C@@H]6O[C@H](CO)[C@@H](O)[C@H](O)[C@H]6O)[C@](C)(CO)[C@@H]5CC[C@]43C)[C@@H]2CC1(C)C [Escin Ia]	no enhancement	0.0 dyne
C/C=C(/C)C(=O)O[C@H]1[C@H](OC(C)=O)[C@]2(CO)[C@H](O)C[C@]3(C)C(=CC[C@@H]4[C@@]5(C)CC[C@H](O[C@@H]6O[C@H](C(=O)O)[C@@H](O[C@@H]7O[C@H](CO)[C@@H](O)[C@H](O)[C@H]7O)[C@H](O)[C@H]6O[C@@H]6O[C@H](CO)[C@@H](O)[C@H](O)[C@H]6O)[C@](C)(CO)[C@@H]5CC[C@]43C)[C@@H]2CC1(C)C [Escin Ib]	no enhancement	0.0 dyne
